The values that follow are results of earlier work, collected in patent publication US12329856B2, “Crosslinked hyaluronic acid composition with local anesthetics” (BIOPOLIMERI S.R.L., priority 2021, dated 2025).

The conditions of the series: tabulated in the state of the art.

SMILES strings stand for the structures.

Regarding `CCCNC(C)C(=O)Nc1c(C)csc1C(=O)OC` (centres unmarked) [articaine], the “pKa^T (thermodynamic pKa)” value was 7.6. Consider `Cc1cccc(C)c1NC(=O)C1CCCCN1C` (centres unmarked) [mepivacaine], for which the “pKa^T (thermodynamic pKa)” value was 7.8.
